According to ChEMBL document CHEMBL1201862, “PubChem BioAssay data set” (2004):
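Cells were grown in 96-well plates and exposed to each compound for 48 hours at five concentrations; endpoints were interpolated linearly between bracketing concentrations, or set to the highest concentration if not reached. GI50 = concentration required for 50% inhibition of growth.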 The source made the active and inactive calls. No stated cut-off is given here; in the data, active = GI50 up to about 1.1 µM and inactive = higher.

Columns and labels:
Test in all cases: DTP human tumour cell line panel, 48 h
U-251 = test system: U-251
COLO 205 = test system: COLO 205
OVCAR-8 = test system: OVCAR-8
Malme-3M = test system: Malme-3M
HCC 2998 = test system: HCC 2998
SNB-19 = test system: SNB-19
SW-620 = test system: SW-620
SF-295 = test system: SF-295
CAKI-1 = test system: CAKI-1
NCI-H226 = test system: NCI-H226
A498 = test system: A498
NCI-H522 = test system: NCI-H522
RXF 393 = test system: RXF 393
MOLT-4 = test system: MOLT-4
786-0 = test system: 786-0
KM12 = test system: KM12
K562 = test system: K562
HCT-116 = test system: HCT-116
TK-10 = test system: TK-10

| Compound | GI50 (U-251) | GI50 (COLO 205) | GI50 (OVCAR-8) | GI50 (Malme-3M) | GI50 (HCC 2998) | GI50 (SNB-19) | GI50 (SW-620) | GI50 (SF-295) | GI50 (CAKI-1) | GI50 (NCI-H226) | GI50 (A498) | GI50 (NCI-H522) | GI50 (RXF 393) | GI50 (MOLT-4) | GI50 (786-0) | GI50 (KM12) | GI50 (K562) | GI50 (HCT-116) | GI50 (TK-10) |
| --- | --- | --- | --- | --- | --- | --- | --- | --- | --- | --- | --- | --- | --- | --- | --- | --- | --- | --- | --- |
| COc1cc2c(cc1OC)-c1cc(OC)c(OC)cc1[C@H]1CN3CCC[C@@]3(O)C=C21 | < 0.0001 µM (active) | < 0.0001 µM (active) | < 0.0001 µM (active) | < 0.0001 µM (active) | 0.01 µM (active) | < 0.0001 µM (active) | < 0.0001 µM (active) | < 0.0001 µM (active) | < 0.0001 µM (active) | < 0.0001 µM (active) | < 0.0001 µM (active) | < 0.0001 µM (active) | 0.01 µM (active) | < 0.0001 µM (active) | < 0.0001 µM (active) | < 0.0001 µM (active) | < 0.0001 µM (active) | < 0.0001 µM (active) | 0.000145 µM (active) |
| CCOC(=O)CC1=Nc2ccccc2SC1 | > 100 µM (inactive) | > 100 µM (inactive) | > 100 µM (inactive) | > 100 µM (inactive) | > 100 µM (inactive) | > 100 µM (inactive) | > 100 µM (inactive) | > 100 µM (inactive) | > 100 µM (inactive) | > 100 µM (inactive) | > 100 µM (inactive) | > 100 µM (inactive) | > 100 µM (inactive) | > 100 µM (inactive) | > 100 µM (inactive) | > 100 µM (inactive) | – | > 100 µM (inactive) | > 100 µM (inactive) |
| O=C(CC1=Nc2nnc(CCCCCCCc3nnc4n3C(=O)C(CC(=O)c3ccc5ccccc5c3)=N4)n2C1=O)c1ccc2ccccc2c1 | > 100 µM (inactive) | > 100 µM (inactive) | > 100 µM (inactive) | > 100 µM (inactive) | > 100 µM (inactive) | > 100 µM (inactive) | > 100 µM (inactive) | > 100 µM (inactive) | > 100 µM (inactive) | > 100 µM (inactive) | < 0.01 µM (active) | > 100 µM (inactive) | > 100 µM (inactive) | > 100 µM (inactive) | > 100 µM (inactive) | > 100 µM (inactive) | > 100 µM (inactive) | > 100 µM (inactive) | > 100 µM (inactive) |
| O=C1CC2C(=O)N(Cc3ccccc3)C1C(S(=O)(=O)c1ccccc1)C2S(=O)(=O)c1ccccc1 (configuration not stated) | 2.92 µM (inactive) | 1.69 µM (inactive) | 1.94 µM (inactive) | 2 µM (inactive) | 8.02 µM (inactive) | – | 0.528 µM (active) | 22.6 µM (inactive) | 0.604 µM (active) | 13.3 µM (inactive) | 18.3 µM (inactive) | 0.363 µM (active) | 1.83 µM (inactive) | 2.55 µM (inactive) | 2.93 µM (inactive) | 13.7 µM (inactive) | 2.09 µM (inactive) | 4.68 µM (inactive) | 1.78 µM (inactive) |
| CCC(C)(O)c1cn(-c2ccc(Cl)cc2)nn1 (configuration not stated) | > 100 µM (inactive) | > 100 µM (inactive) | > 100 µM (inactive) | > 100 µM (inactive) | > 100 µM (inactive) | > 100 µM (inactive) | > 100 µM (inactive) | > 100 µM (inactive) | > 100 µM (inactive) | > 100 µM (inactive) | > 100 µM (inactive) | > 100 µM (inactive) | > 100 µM (inactive) | > 100 µM (inactive) | > 100 µM (inactive) | > 100 µM (inactive) | > 100 µM (inactive) | > 100 µM (inactive) | > 100 µM (inactive) |
| CSc1c([S+](C)[O-])[nH]c2cc(Br)cc(Br)c12 (configuration not stated) | 0.0376 µM (active) | 18 µM (inactive) | 22 µM (inactive) | 24.9 µM (inactive) | 18.3 µM (inactive) | – | 32.8 µM (inactive) | 17.1 µM (inactive) | 25.1 µM (inactive) | 27.4 µM (inactive) | 22.1 µM (inactive) | 23.3 µM (inactive) | 14 µM (inactive) | 18.1 µM (inactive) | 16 µM (inactive) | 24.6 µM (inactive) | 24.2 µM (inactive) | 17.6 µM (inactive) | 27.8 µM (inactive) |
| COc1cccc2cc(C)c(C(=O)c3ccccc3)nc12 | > 100 µM (inactive) | > 100 µM (inactive) | > 100 µM (inactive) | > 100 µM (inactive) | > 100 µM (inactive) | > 100 µM (inactive) | > 100 µM (inactive) | > 100 µM (inactive) | > 100 µM (inactive) | > 100 µM (inactive) | – | > 100 µM (inactive) | > 100 µM (inactive) | > 100 µM (inactive) | > 100 µM (inactive) | > 100 µM (inactive) | > 100 µM (inactive) | > 100 µM (inactive) | > 100 µM (inactive) |
| O=C(NN=C1NCCCCN1)Nc1ccc(Cl)cc1 | > 100 µM (inactive) | > 100 µM (inactive) | > 100 µM (inactive) | > 100 µM (inactive) | > 100 µM (inactive) | > 100 µM (inactive) | > 100 µM (inactive) | > 100 µM (inactive) | > 100 µM (inactive) | 85.1 µM (inactive) | > 100 µM (inactive) | > 100 µM (inactive) | > 100 µM (inactive) | 23.9 µM (inactive) | > 100 µM (inactive) | > 100 µM (inactive) | 33 µM (inactive) | > 100 µM (inactive) | > 100 µM (inactive) |
| C[C@]12CC/C(=N\O)C=C1CC[C@@H]1C2CC[C@@]2(C)C1CC[C@@H]2OC1CCCCO1 (some centres not stated) | 17.9 µM (inactive) | 17.4 µM (inactive) | > 100 µM (inactive) | 21.9 µM (inactive) | 15.4 µM (inactive) | 18.3 µM (inactive) | 18.1 µM (inactive) | 18.5 µM (inactive) | > 10 µM (inactive) | – | > 100 µM (inactive) | 17.4 µM (inactive) | 25.4 µM (inactive) | 12.4 µM (inactive) | 17.7 µM (inactive) | 16.7 µM (inactive) | 19 µM (inactive) | 20.1 µM (inactive) | 22.8 µM (inactive) |
| Cc1cc(Br)cc(C)c1NC(=O)C(=O)C(C(=O)c1ccncc1)C1OC(=O)c2ccccc21 (configuration not stated) | > 100 µM (inactive) | > 100 µM (inactive) | > 100 µM (inactive) | > 100 µM (inactive) | > 100 µM (inactive) | > 100 µM (inactive) | > 100 µM (inactive) | – | > 100 µM (inactive) | > 100 µM (inactive) | > 100 µM (inactive) | > 100 µM (inactive) | > 100 µM (inactive) | > 100 µM (inactive) | > 100 µM (inactive) | > 100 µM (inactive) | > 100 µM (inactive) | > 100 µM (inactive) | > 100 µM (inactive) |
| COc1ccc(NC(=O)CC/C(CC(=O)c2ccco2)=N/NC(=O)C(N)=O)cc1 | – | > 100 µM (inactive) | > 100 µM (inactive) | 98.9 µM (inactive) | > 100 µM (inactive) | 56.8 µM (inactive) | > 100 µM (inactive) | > 100 µM (inactive) | > 100 µM (inactive) | > 100 µM (inactive) | 76.4 µM (inactive) | 53 µM (inactive) | 61.9 µM (inactive) | 46.9 µM (inactive) | > 100 µM (inactive) | > 100 µM (inactive) | 28.1 µM (inactive) | – | > 100 µM (inactive) |
| COC(=O)/C(C#N)=C1\CCC(Nc2cccc(C(F)(F)F)c2)N1C (configuration not stated) | > 100 µM (inactive) | – | > 100 µM (inactive) | > 100 µM (inactive) | > 100 µM (inactive) | > 100 µM (inactive) | > 100 µM (inactive) | > 100 µM (inactive) | > 100 µM (inactive) | > 100 µM (inactive) | – | > 100 µM (inactive) | 46.1 µM (inactive) | 51.6 µM (inactive) | > 100 µM (inactive) | 59.6 µM (inactive) | 45.8 µM (inactive) | > 100 µM (inactive) | > 100 µM (inactive) |
| O=C(NO)C12C3C4C1C1C2C3C41C(=O)NO (configuration not stated) | > 100 µM (inactive) | > 100 µM (inactive) | > 100 µM (inactive) | > 100 µM (inactive) | > 100 µM (inactive) | > 100 µM (inactive) | – | > 100 µM (inactive) | > 100 µM (inactive) | > 100 µM (inactive) | > 100 µM (inactive) | > 100 µM (inactive) | > 100 µM (inactive) | > 100 µM (inactive) | > 100 µM (inactive) | > 100 µM (inactive) | > 100 µM (inactive) | > 100 µM (inactive) | > 100 µM (inactive) |
| COC(=O)c1cc(=O)nc2cc3cccccc3n12 | > 100 µM (inactive) | > 100 µM (inactive) | > 100 µM (inactive) | > 100 µM (inactive) | > 100 µM (inactive) | > 100 µM (inactive) | > 100 µM (inactive) | > 100 µM (inactive) | – | > 100 µM (inactive) | > 100 µM (inactive) | > 100 µM (inactive) | > 100 µM (inactive) | > 100 µM (inactive) | > 100 µM (inactive) | > 100 µM (inactive) | > 100 µM (inactive) | > 100 µM (inactive) | > 100 µM (inactive) |
| O=C(Cc1csc(-c2nc(CC(=O)NNc3ccccc3)cs2)n1)NNc1ccccc1 | > 100 µM (inactive) | 25.9 µM (inactive) | > 100 µM (inactive) | > 100 µM (inactive) | 43 µM (inactive) | > 100 µM (inactive) | – | > 100 µM (inactive) | > 100 µM (inactive) | > 100 µM (inactive) | > 100 µM (inactive) | 20.4 µM (inactive) | > 100 µM (inactive) | 39.4 µM (inactive) | 35.6 µM (inactive) | > 100 µM (inactive) | 32.8 µM (inactive) | 77.1 µM (inactive) | > 100 µM (inactive) |
